Laboratory results published in patent US9359451B2, “Methods and compositions for treating trauma-hemorrhage using estrogen and derivatives thereof” (THE UAB RESEARCH FOUNDATION, priority 2012, dated 2016).
Entries after “also recorded” stand apart in the source; their conditions may differ.

Tests used:
Bax and Bcl-2 = assay: Spinal cord injury: Western blot analysis for Bax and Bcl-2; assay type: in vivo, mouse; conditions: 24 h after SCI; ICI 182,780: co-administered with 17β-estradiol
Method: Mice were anaesthetized using chloral hydrate (400 mg/kg body weight) (Genovese 2006). A longitudinal incision was made on the midline of the back, exposing the paravertebral muscles. These muscles were dissected away exposing T5-T8 vertebrae. The spinal cord was exposed via a four-level T6-T7 laminectomy and SCI was produced by extradural compression using an aneurysm clip with a closing force of 24 g. Following surgery, 1 ml of saline was administered subcutaneously in order to replace the blood volume lost during surgery. During the surgery and recovery from anesthesia, the mice were placed on a warm heating pad and covered with a warm towel. […] Food and water were provided to the mice ad libitum. During this time period, the animals' bladders were manually voided twice a day until the mice were able to regain normal bladder function. In all injured groups, the spinal cord was compressed for 1 min. Sham-injured animals were only subjected to laminectomy. […] In the experiments regarding the motor score, the animals from all the experimental groups were observed and treated daily for 9 days after SCI. At different time points (see FIG. 30), the mice (n=10 from each group for each of the 3 time points) were sacrificed in order to evaluate the various parameters as described below. […] After 1 hour, tissue lysates were obtained by centrifugation at 100,000×g for 15 min at 4° C. Protein concentrations were estimated by the Bio-Rad protein assay (Bio-Rad Laboratories, Segrate, Milan, Italy) using BSA as standard. […] The blot was performed by transferring proteins from a slab gel to nitrocellulose membrane at 240 mA for 40 min at room temperature. […] The AffiniPure Goat Anti-Rabbit IgG coupled to peroxidase secondary antibody (1:2000; Jackson Immuno Research, Laboratories, Inc., CA, USA) was incubated for 1 hour at room temperature. Subsequently, the blot was extensively washed with PBS, developed using SuperSignal West Pico chemiluminescence Substrate (PIERCE, Milan, Italy), according to the manufacturer's instructions, and exposed to Kodak X-Omat film (Eastman Kodak Co., Rochester, N.Y.). α-Tubulin protein (Sigma; 1:1000) Western blot was performed to ensure equal sample loading. The protein bands of Bax (23˜kDa), or Bcl-2 (26˜kDa) on x-ray film were scanned and densitometrically analyzed with a model GS-700 imaging densitometer (Bio-Rad Laboratories). To ascertain that blots were loaded with equal amounts of protein lysates, they were also incubated in the presence of the antibody against α-tubulin protein (1:10,000 Sigma-Aldrich Corp.). The densitometric data for Western are normalized for loading control values.

[1] = test system: TNF-α, IL-1β, IL-6 and MCP-1 mRNA; assay: Spinal cord injury: quantitative real time PCR of cytokines and chemokines; assay type: in vivo, mouse; conditions: 24 h after SCI; ICI 182,780: co-administered with 17β-estradiol
Method: Mice were anaesthetized using chloral hydrate (400 mg/kg body weight) (Genovese 2006). A longitudinal incision was made on the midline of the back, exposing the paravertebral muscles. These muscles were dissected away exposing T5-T8 vertebrae. The spinal cord was exposed via a four-level T6-T7 laminectomy and SCI was produced by extradural compression using an aneurysm clip with a closing force of 24 g. Following surgery, 1 ml of saline was administered subcutaneously in order to replace the blood volume lost during surgery. During the surgery and recovery from anesthesia, the mice were placed on a warm heating pad and covered with a warm towel. The mice were singly housed in a temperature-controlled room at 27° C. and survival was measured over a period of 10 days. Food and water were provided to the mice ad libitum. During this time period, the animals' bladders were manually voided twice a day until the mice were able to regain normal bladder function. In all injured groups, the spinal cord was compressed for 1 min. Sham-injured animals were only subjected to laminectomy.
In the experiments regarding the motor score, the animals from all the experimental groups were observed and treated daily for 9 days after SCI. At different time points (see FIG. 30), the mice (n=10 from each group for each of the 3 time points) were sacrificed in order to evaluate the various parameters as described below.
A segment of spinal cord (320±124 mg) encompassing lesion epicentre was homogenized in a solution of Tri-reagent (Sigma®, Germany) according to the manufacturer's instructions. Total cellular RNA was isolated from the aqueous phase then the levels of […], TNF-α, MCP-1, IL-6 gene products were determined by Real Time PCR. The amount of each PCR product of gene target was normalized to Glyceraldehyde-3-phosphate dehydrogenase (GAPDH). The RNA extracted from spinal cord of individual mice was reverse transcripted into first strand cDNA with Random Hexamers and purified Avian Myeloblastosis Virus Reverse Transcriptase (Takara, Japan) in […] of reaction after a DNAse treatment and stored at −80° C. until use. Primers pair for each cytokine was designed using the software Oligo (Molecular Biology Insights, Cascade, Colo., USA). The PCR reactions were performed using the following cycle conditions: a denaturation step for 15 minutes at 95° C. and 40 cycles of 30 seconds denaturation at 94° C., 30 seconds annealing (TNF-á 61° C., IL-6 54° C., IL-1β 61° C., MCP-1 54° C., GADPH 56° C.), 15 sec at 72° C. and 7 minutes of final extension at 72° C. The PCR products were visualized by electrophoresis on agarose gel 2% stained by ethidium bromide. The purified PCR products were cloned into a plasmid vector, transformed into the E. coli TOP 10 (Invitrogen) and purified with Turbo Kit (QBIOgene, CA, USA). The recombinant plasmid was linearized upstream the target sequence using the restriction endonuclease PmeI (Fermentas, Canada). Tenfold dilutions of recombinant plasmid from 10^9 copies down to 10^1 copies were used as standards. The real time PCR assay was developed and evaluated on the Rotor-Gene 3000 system (Corbett Research, Australia). Reaction was carried out in a final volume of 25 μl containing 1× of SYBR PREMIX Ex Taq Takara, 200 nM each forward and reverse primers, 1× of Rox References Dye and 2 μl of cDNA. Cycling parameters were the following: 10 minutes at 95° C. for polymerase activation followed by 40 cycles of 15 seconds at 95° C., 15 seconds annealing (TNF-α 61° C., […], IL-6 54° C., IL-1β 61° C., MCP-1 54° C., GADPH 56° C.) 20 sec at 72° C. The signal was acquired on the FAM channel (multichannel machine) (source, 470 nm; detector, 510 nm; gain set to 5) with the fluorescence reading taken at the end of each 72° C. step. A melt step was added after a cycling run performed with the same parameters of the SYBR Green assay. […]

SMILES	Bax levels (Western blot) (Bax and Bcl-2)	Bcl-2 expression (Western blot) (Bax and Bcl-2)	IL-1β mRNA levels in spinal cord [1]	IL-6 mRNA levels in spinal cord [1]	MCP-1 mRNA levels in spinal cord [1]	TNF-α mRNA levels in spinal cord [1]
C[C@]12CC[C@@H]3c4ccc(O)cc4CC[C@H]3[C@@H]1CC[C@@H]2O [17β-estradiol]	prevented the SCI-induced Bax expression; also recorded: Bax band disappeared	significantly reduced the SCI-induced inhibition of Bcl-2 expression; also recorded: Bcl-2 band is more evident	significantly reduced	significantly reduced	significantly reduced	significantly reduced
C[C@]12CC[C@@H]3c4ccc(O)cc4C[C@@H](CCCCCCCCC[S+]([O-])CCCC(F)(F)C(F)(F)F)[C@H]3[C@@H]1CC[C@@H]2O (stereo partly drawn) [ICI 182,780]	significantly blocked the effect of the 17β-estradiol; also recorded: Bax band is more evident in comparison with the band present in the tissue from 17β-estradiol-treated mice	significantly blocked the effect of the 17β-estradiol; also recorded: BCL2 band is less evident	significantly blocked the effect of the 17β-estradiol	significantly blocked the effect of the 17β-estradiol	significantly blocked the effect of the 17β-estradiol	significantly blocked the effect of the 17β-estradiol
